Experimental data as given in ChEMBL document CHEMBL5154755, “Discovery of Novel Indazoles as Potent and Selective PI3Kδ Inhibitors with High Efficacy for Treatment of Hepatocellular Carcinoma” (J Med Chem, 2022).
Activity calls are given as the source filed them. The rule behind the calls is not given here.

How the values were obtained:
Bel-7402 [1] = experiment: Induction of apoptosis in human Bel-7402 cells xenografted in Balb/c (nu/nu) mouse assessed as increase in expression of cleaved PARP at 20 to 40 mg/kg, po daily after 14 days by western blot analysis; assay type: functional, organism-based; settings: dose 20-40 mg/kg, time 14.0 day
Hep 3B2 [2] = experiment: Antiproliferative activity against human Hep3B cells assessed as inhibition of cell growth incubated for 72 hrs by SRB assay; assay type: functional, cell-based
HepG2 [3] = experiment: Induction of apoptosis in human HepG2 cells assessed as decrease in EGf dependent Akt phosphorylation at serine 473 residue at 0.3 to 10 uM measured after 24 hrs by western blotting analysis; assay type: functional, cell-based; settings: dose 0.3-10 µM, DDE = dose-dependent effect
[4] = target: Phosphatidylinositol 4,5-bisphosphate 3-kinase catalytic subunit gamma isoform (Homo sapiens, UniProt P48736); experiment: Inhibition of PI3Kgamma (unknown origin) using PIP2 as substrate incubated for 1 hr in presence of ATP by ADP-Glo assay
Bel-7402 [5] = experiment: Induction of apoptosis in human Bel-7402 cells assessed as increase in apoptotic cells at 12.5 to 50 uM for 24 hrs by TUNEL staining method; assay type: functional, cell-based; settings: dose 12.5-50 µM
HepG2 [6] = experiment: Induction of apoptosis in human HepG2 cells assessed as decrease in EGf dependent Akt phosphorylation at threonine 308 residue at 0.3 to 10 uM measured after 24 hrs by western blotting analysis; assay type: functional, cell-based; settings: dose 0.3-10 µM, DDE = dose-dependent effect
Bel-7402 [7] = experiment: Induction of apoptosis in human Bel-7402 cells assessed as decrease in EGf dependent Akt phosphorylation at serine 473 residue at 0.3 to 10 uM measured after 24 hrs by western blotting analysis; assay type: functional, cell-based; settings: dose 0.3-10 µM, DDE = dose-dependent effect
HepG2 [8] = experiment: cells; settings: Homo sapiens, HepG2, 72 h
Description: Antiproliferative activity against human HepG2 cells assessed as inhibition of cell growth incubated for 72 hrs by SRB assay

HepG2 [9] = experiment: Induction of apoptosis in human HepG2 cells assessed as increase in expression of cleaved caspase-3 at 1.5625 to 50 uM incubated for 24 hrs by Western blotting analysis; assay type: functional, cell-based; settings: dose 1.5625-50 µM, DDE = dose-dependent effect
Bel-7402 [10] = experiment: Induction of apoptosis in human Bel-7402 cells assessed as decrease in EGf dependent Akt phosphorylation at threonine 308 residue at 0.3 to 10 uM measured after 24 hrs by western blotting analysis; assay type: functional, cell-based; settings: dose 0.3-10 µM, DDE = dose-dependent effect
Bel-7402 [11] = experiment: Induction of apoptosis in human Bel-7402 cells xenografted in Balb/c (nu/nu) mouse assessed as increase in expression of cleaved caspase-3 at 20 to 40 mg/kg, po daily after 14 days by western blot analysis; assay type: functional, organism-based; settings: dose 20-40 mg/kg, time 14.0 day
HepG2 [12] = experiment: Induction of apoptosis in human HepG2 cells assessed as increase in expression of cleaved PARP at 1.5625 to 50 uM incubated for 24 hrs by Western blotting analysis; assay type: functional, cell-based; settings: dose 1.5625-50 µM, DDE = dose-dependent effect
Bel-7402 [13] = experiment: Induction of apoptosis in human Bel-7402 cells assessed as increase in expression of cleaved caspase-3 at 1.5625 to 50 uM incubated for 24 hrs by Western blotting analysis; assay type: functional, cell-based; settings: dose 1.5625-50 µM, DDE = dose-dependent effect
Bel-7402 [14] = experiment: Induction of apoptosis in human Bel-7402 cells xenografted in Balb/c (nu/nu) mouse assessed as decrease in phosphorylation of Akt at serine 473 residue at 20 to 40 mg/kg, po daily after 14 days by western blot analysis; assay type: functional, organism-based; settings: dose 20-40 mg/kg, time 14.0 day
Bel-7402 [15] = experiment: Induction of apoptosis in human Bel-7402 cells xenografted in Balb/c (nu/nu) mouse assessed as decrease in cell proliferation at 20 to 40 mg/kg, po daily after 14 days by Ki-67 staining based immunohistochemical analysis; assay type: functional, organism-based; settings: dose 20-40 mg/kg, time 14.0 day
[16] = target: Phosphatidylinositol 4,5-bisphosphate 3-kinase catalytic subunit alpha isoform (Homo sapiens, UniProt P42336); experiment: Inhibition of PI3Kalpha (unknown origin) using PIP2 as substrate incubated for 1 hr in presence of ATP by ADP-Glo assay
Bel-7402 [17] = experiment: Antiproliferative activity against human Bel-7402 cells assessed as inhibition of cell growth incubated for 72 hrs by SRB assay; assay type: functional, cell-based; settings: Bel-7402, 72 h
[18] = Toxicity in Balb/c (nu/nu) mouse xenografted with human Bel-7402 cells assessed as change in body weight at 20 to 40 mg/kg, po daily after 14 days; assay type: organism-based; settings: in vivo, 336 h, dose 20-40 mg/kg, time 14 day
[19] = target: Phosphatidylinositol 4,5-bisphosphate 3-kinase catalytic subunit beta isoform (Homo sapiens, UniProt P42338); experiment: Inhibition of PI3Kbeta (unknown origin) using PIP2 as substrate incubated for 1 hr in presence of ATP by ADP-Glo assay
Bel-7402 [20] = experiment: Induction of apoptosis in human Bel-7402 cells assessed as increase in expression of cleaved PARP at 1.5625 to 50 uM incubated for 24 hrs by Western blotting analysis; assay type: functional, cell-based; settings: dose 1.5625-50 µM, DDE = dose-dependent effect
Bel-7402 [21] = experiment: Induction of apoptosis in human Bel-7402 cells xenografted in Balb/c (nu/nu) mouse assessed as increase in apoptotic cells at 20 to 40 mg/kg, po daily after 14 days by DAPI staining based assay; assay type: functional, organism-based; settings: dose 20-40 mg/kg, time 14.0 day
HepG2 [22] = experiment: cells; settings: Homo sapiens, HepG2, 72 h, read-out: INH
Hep 3B2 [23] = experiment: cells; settings: Homo sapiens, Hep3B, 72 h, read-out: INH
Bel-7402 [24] = experiment: animal or person; settings: Mus musculus, Bel-7402, po, 336 h, read-out: INH
Bel-7402 [25] = experiment: cells; settings: Homo sapiens, Bel-7402, 72 h, read-out: INH
Bel-7402 [26] = experiment: Induction of apoptosis in human Bel-7402 cells assessed as increase in apoptotic cells at 50 uM for 24 hrs by TUNEL staining method; assay type: functional, cell-based
Bel-7402 [27] = experiment: Antitumor activity against human Bel-7402 cells xenografted in BAlb/c (nu/nu) mouse assessed as inhibition rate at 30 mg/kg, po daily measured after 14 days; assay type: functional; settings: Bel-7402, 336 h, time 14 day
Bel-7402 [28] = experiment: Antitumor activity against human Bel-7402 cells xenografted in Balb/c (nu/nu) mouse assessed as relative tumor volume at 30 mg/kg, po qd after 14 days (Rvb=25.69+/-2.73); assay type: functional; settings: time 14 day
Bel-7402 [29] = experiment: Antitumor activity against human Bel-7402 cells xenografted in Balb/c (nu/nu) mouse assessed as tumor weight at 30 mg/kg, po qd after 14 days (Rvb=0.65 +/- 0.06 g); assay type: functional; settings: time 14 day
Bel-7402 [30] = experiment: Antitumor activity against human Bel-7402 cells xenografted in BAlb/c (nu/nu) mouse assessed as T/C ratio at 30 mg/kg, po daily measured after 14 days; assay type: functional; settings: time 14 day
[31] = target: T1, Phosphatidylinositol 4,5-bisphosphate 3-kinase catalytic subunit delta isoform (Homo sapiens, UniProt O00329); experiment: Inhibition of PI3Kdelta (unknown origin) using PIP2 as substrate incubated for 1 hr in presence of ATP by ADP-Glo assay
T1 sequence (O00329 whole entry): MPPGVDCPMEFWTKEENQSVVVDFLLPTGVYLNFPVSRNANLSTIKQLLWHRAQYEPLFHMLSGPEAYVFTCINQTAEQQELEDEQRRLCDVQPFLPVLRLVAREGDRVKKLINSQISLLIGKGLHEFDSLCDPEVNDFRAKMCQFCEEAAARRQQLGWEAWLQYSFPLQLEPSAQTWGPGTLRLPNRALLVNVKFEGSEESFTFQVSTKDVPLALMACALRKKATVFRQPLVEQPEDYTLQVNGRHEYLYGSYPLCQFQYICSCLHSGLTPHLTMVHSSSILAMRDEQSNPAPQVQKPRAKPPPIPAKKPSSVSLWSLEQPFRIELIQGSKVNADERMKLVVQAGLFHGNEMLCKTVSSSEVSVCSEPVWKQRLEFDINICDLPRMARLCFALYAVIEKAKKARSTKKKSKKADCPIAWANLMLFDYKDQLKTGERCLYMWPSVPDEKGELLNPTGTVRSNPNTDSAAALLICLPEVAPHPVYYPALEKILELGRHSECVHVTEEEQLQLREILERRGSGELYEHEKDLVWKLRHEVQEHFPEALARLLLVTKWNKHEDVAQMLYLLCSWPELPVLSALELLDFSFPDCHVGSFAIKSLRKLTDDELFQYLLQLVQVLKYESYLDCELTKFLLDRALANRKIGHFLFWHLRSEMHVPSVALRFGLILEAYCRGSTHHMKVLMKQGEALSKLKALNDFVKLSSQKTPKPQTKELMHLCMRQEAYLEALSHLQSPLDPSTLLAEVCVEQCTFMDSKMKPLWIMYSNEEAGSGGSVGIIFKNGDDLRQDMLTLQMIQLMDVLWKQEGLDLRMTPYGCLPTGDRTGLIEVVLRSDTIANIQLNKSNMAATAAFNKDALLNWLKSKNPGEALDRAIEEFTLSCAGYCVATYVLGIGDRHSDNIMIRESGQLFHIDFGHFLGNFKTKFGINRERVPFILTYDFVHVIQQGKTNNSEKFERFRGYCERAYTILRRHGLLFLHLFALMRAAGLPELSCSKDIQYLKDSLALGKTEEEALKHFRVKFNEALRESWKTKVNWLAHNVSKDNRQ

Sequence of Phosphatidylinositol 4,5-bisphosphate 3-kinase catalytic subunit beta isoform (P42338 whole entry, canonical isoform): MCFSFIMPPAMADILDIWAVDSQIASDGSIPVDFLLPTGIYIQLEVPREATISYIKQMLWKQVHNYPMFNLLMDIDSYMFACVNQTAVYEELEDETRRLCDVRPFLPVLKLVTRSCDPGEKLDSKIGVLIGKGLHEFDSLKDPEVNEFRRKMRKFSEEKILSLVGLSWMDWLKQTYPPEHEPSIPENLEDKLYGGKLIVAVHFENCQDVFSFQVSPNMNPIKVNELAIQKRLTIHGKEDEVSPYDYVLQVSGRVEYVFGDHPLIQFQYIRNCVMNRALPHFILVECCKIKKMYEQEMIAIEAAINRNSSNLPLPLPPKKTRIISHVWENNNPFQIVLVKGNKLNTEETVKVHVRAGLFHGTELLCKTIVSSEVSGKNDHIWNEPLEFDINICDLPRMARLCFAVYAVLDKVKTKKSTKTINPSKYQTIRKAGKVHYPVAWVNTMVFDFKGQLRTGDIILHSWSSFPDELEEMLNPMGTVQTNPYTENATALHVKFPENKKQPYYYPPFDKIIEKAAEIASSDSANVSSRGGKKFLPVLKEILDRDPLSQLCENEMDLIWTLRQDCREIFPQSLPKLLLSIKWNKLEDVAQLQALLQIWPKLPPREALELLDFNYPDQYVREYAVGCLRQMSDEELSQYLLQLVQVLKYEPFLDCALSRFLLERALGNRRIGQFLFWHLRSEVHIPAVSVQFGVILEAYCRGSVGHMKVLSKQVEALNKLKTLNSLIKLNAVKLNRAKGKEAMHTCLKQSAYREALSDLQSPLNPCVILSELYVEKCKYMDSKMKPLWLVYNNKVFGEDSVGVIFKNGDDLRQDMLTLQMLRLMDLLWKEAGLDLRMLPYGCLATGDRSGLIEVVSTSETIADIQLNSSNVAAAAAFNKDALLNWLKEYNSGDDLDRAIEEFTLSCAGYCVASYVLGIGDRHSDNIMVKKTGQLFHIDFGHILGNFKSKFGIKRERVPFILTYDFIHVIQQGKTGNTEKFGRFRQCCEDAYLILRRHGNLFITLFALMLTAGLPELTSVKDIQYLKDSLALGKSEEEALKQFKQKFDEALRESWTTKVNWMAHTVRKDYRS
Sequence of Phosphatidylinositol 4,5-bisphosphate 3-kinase catalytic subunit gamma isoform (P48736 whole entry, canonical isoform): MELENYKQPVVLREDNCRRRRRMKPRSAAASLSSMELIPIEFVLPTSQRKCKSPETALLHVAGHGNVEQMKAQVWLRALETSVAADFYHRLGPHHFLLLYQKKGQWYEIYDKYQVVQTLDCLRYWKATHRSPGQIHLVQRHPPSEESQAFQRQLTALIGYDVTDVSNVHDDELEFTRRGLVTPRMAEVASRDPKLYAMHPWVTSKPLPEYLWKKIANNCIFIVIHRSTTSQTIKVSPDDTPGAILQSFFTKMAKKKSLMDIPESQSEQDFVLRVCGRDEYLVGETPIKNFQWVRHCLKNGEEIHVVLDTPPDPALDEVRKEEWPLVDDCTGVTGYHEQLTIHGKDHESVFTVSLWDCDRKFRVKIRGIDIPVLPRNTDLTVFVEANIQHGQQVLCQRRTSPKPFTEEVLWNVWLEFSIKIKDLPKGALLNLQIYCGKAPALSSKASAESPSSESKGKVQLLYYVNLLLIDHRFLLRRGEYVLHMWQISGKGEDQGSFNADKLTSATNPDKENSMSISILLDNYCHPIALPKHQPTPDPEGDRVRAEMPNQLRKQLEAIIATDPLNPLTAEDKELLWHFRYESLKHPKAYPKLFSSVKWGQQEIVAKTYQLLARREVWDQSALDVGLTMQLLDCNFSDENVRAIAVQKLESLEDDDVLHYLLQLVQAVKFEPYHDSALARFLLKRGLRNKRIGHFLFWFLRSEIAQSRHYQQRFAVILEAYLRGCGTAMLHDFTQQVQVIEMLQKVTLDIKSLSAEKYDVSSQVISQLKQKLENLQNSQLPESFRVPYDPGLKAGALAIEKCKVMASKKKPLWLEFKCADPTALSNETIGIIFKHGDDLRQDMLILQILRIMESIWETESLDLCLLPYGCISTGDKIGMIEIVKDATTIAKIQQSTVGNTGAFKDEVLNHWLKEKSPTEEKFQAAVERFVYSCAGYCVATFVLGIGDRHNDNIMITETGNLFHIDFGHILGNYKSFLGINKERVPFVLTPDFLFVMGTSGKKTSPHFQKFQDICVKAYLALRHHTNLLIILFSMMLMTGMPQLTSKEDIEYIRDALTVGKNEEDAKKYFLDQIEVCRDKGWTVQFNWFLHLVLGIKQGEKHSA
Sequence of Phosphatidylinositol 4,5-bisphosphate 3-kinase catalytic subunit alpha isoform (P42336 whole entry, canonical isoform): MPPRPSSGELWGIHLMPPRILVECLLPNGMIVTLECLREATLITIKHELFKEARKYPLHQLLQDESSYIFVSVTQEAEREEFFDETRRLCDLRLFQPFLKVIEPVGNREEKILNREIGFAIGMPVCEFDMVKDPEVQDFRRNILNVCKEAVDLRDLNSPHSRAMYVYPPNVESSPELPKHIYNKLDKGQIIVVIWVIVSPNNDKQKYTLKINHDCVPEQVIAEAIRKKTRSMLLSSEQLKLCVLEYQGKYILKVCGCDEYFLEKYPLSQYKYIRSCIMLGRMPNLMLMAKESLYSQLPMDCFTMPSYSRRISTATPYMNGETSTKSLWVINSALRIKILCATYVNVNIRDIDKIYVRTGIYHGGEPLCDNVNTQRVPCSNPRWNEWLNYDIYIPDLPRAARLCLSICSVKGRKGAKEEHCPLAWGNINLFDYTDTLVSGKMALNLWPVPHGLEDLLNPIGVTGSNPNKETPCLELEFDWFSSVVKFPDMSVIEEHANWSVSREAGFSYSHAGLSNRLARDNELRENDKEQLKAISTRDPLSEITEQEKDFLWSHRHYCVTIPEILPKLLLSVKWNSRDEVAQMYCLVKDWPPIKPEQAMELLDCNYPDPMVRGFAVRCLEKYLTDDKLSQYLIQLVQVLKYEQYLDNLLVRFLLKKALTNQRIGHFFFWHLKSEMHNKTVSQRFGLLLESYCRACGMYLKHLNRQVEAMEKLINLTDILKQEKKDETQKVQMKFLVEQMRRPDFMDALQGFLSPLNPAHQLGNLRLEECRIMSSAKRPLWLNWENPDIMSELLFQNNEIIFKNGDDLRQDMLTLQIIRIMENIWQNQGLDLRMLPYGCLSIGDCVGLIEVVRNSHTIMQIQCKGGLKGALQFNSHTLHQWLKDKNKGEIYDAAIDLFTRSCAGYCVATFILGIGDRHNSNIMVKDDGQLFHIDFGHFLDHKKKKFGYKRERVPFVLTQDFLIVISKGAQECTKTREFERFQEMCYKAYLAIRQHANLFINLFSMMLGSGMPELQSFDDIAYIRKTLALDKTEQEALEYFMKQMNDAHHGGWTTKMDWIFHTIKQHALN

Compound	IC50 (Hep 3B2 [2]) [nM]	IC50 [4] [nM]	IC50 (HepG2 [8]) [nM]	IC50 [16] [nM]	IC50 (Bel-7402 [17]) [nM]	IC50 [19] [nM]	inhibition at 10 µM (HepG2 [22]) [%]	inhibition at 10 µM (Hep 3B2 [23]) [%]	inhibition at 10 µM (Bel-7402 [25]) [%]	IC50 [31] [nM]	other results
C[C@H](Nc1nc(N)nc(N)c1C#N)c1nn(-c2cccnc2)c2cc(Cl)ccc12	1090	275	530	> 1000	1360	41					Activity (Bel-7402 [1]): Active; Activity (HepG2 [3]): Dde; Activity (Bel-7402 [5]): Active; Activity (HepG2 [6]): Dde; Activity (Bel-7402 [7]): Dde; Activity (HepG2 [9]): Dde; Activity (Bel-7402 [10]): Dde; Activity (Bel-7402 [11]): Active; Activity (HepG2 [12]): Dde; Activity (Bel-7402 [13]): Dde; Activity (Bel-7402 [14]): Active; Activity (Bel-7402 [15]): Active; Activity [18]: Non-Toxic; Activity (Bel-7402 [20]): Dde; Activity (Bel-7402 [21]): Active
CC[C@H](Nc1ncnc2[nH]cnc12)c1nc2cccc(F)c2c(=O)n1-c1ccccc1 [IDELALISIB]	77600		89500		66200		20	21	9		inhibition in vivo at 40 mg/kg (Bel-7402 [24]): 44.6%; Activity (Bel-7402 [26]): Active
CNC(=O)c1cc(Oc2ccc(NC(=O)Nc3ccc(Cl)c(C(F)(F)F)c3)cc2)ccn1 [SORAFENIB]											inhibition in vivo at 30 mg/kg (Bel-7402 [27]): 51.3%; Activity (Bel-7402 [28]): 11.6; Activity (Bel-7402 [29]): 0.32 g; T/C (Bel-7402 [30]): 45.13%
CC[C@H](Nc1nc(N)nc(N)c1C#N)c1nn(-c2cccnc2)c2cc(Cl)ccc12	12100	> 1000	4770	576	5590	31	59	56	56	1.2	
C[C@H](Nc1nc(N)nc(N)c1C#N)c1nn(-c2cccc(S(C)(=O)=O)c2)c2cc(Cl)ccc12	5110	> 1000	1880	> 1000	4460	47	56	72	47	2.1	
C[C@H](Nc1nc(N)nc(N)c1C#N)c1nn(-c2cccnc2)c2ccccc12	26500		32500		34600		10	20	12	4	
